Experimental data taken from ChEMBL document CHEMBL1201862, “PubChem BioAssay data set” (2004).
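Tested at 5 concentrations; 48 h exposure; 96-well plates; endpoints linearly interpolated, else capped at highest concentration. At the GI50, growth is halved.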 Calls of active or inactive are those of the source. Rule as the data show it: active = GI50 up to about 1.1 µM and inactive = higher.

Key:
Assay in all cases: DTP human tumour cell line panel, 48 h
DMS-273 = test system: DMS-273
XF498 = test system: XF498
KM-20L2 = test system: KM-20L2
RXF 631 = test system: RXF 631
DMS-114 = test system: DMS-114
HOP-18 = test system: HOP-18
DLD-1 = test system: DLD-1
LXFL 529 = test system: LXFL 529
T47D = test system: T47D

Row | SMILES | GI50 (DMS-273) | GI50 (XF498) | GI50 (KM-20L2) | GI50 (RXF 631) | GI50 (DMS-114) | GI50 (HOP-18) | GI50 (DLD-1) | GI50 (LXFL 529) | GI50 (T47D)
1 | N#C/N=C(/N)NCO | > 90.4 µM (inactive) | > 60.8 µM (inactive) | > 51.4 µM (inactive) | > 100 µM (inactive) | > 43 µM (inactive) | > 100 µM (inactive) | > 54 µM (inactive) | > 63.1 µM (inactive) | 
2 | O=C(CC(=O)n1nc(-c2ccccc2)c(/N=N/c2ccc(Cl)cc2)c1-c1ccccc1)Nc1ccc(Cl)cc1 | > 55.1 µM (inactive) |  | > 76 µM (inactive) | > 100 µM (inactive) | > 40.6 µM (inactive) | > 100 µM (inactive) | 18.6 µM (inactive) | > 60 µM (inactive) | 
3 | O=c1nc(-c2ccccc2)scc1-c1ccccc1 |  | > 100 µM (inactive) | > 100 µM (inactive) | > 100 µM (inactive) | > 100 µM (inactive) | > 100 µM (inactive) | > 100 µM (inactive) | > 100 µM (inactive) | 
4 | CCCC/C=C1\CCC(CN2CCOCC2)C1=O (centres undefined) | 3.74 µM (inactive) | 1.64 µM (inactive) | 4.89 µM (inactive) | 14.9 µM (inactive) | 4.86 µM (inactive) | 0.653 µM (active) | 1.75 µM (inactive) | 1.43 µM (inactive) | 5.19 µM (inactive)
5 | Cc1nc2c(o1)/C(=N\c1ccccc1)c1ccccc1/C2=N/c1ccccc1 | 63.5 µM (inactive) | > 100 µM (inactive) | > 100 µM (inactive) | 81.7 µM (inactive) | 39.2 µM (inactive) | > 100 µM (inactive) | 53.6 µM (inactive) | 45.3 µM (inactive) | 
